Data set [1] in a line: pKa determination (absorbance vs. pH). As to conditions: for ηH: Hill coefficient from pH titration data; for pKa: aqueous buffer solutions.
Method: For pH 2.0-4.0, the McIlvaine citrate/phosphate buffer system was used. For other pH ranges dye absorbance was measured in buffers containing 150 mM NaCl and 10 mM buffer using the following systems: citrate (pH 4.0-6.0), phosphate (pH 5.8-8.0); tris (pH 7.8-9.0); carbonate (pH 9.2-10.0). Buffer solutions containing 5 M of each fluorophore were prepared (36 samples in duplicate from pH 4.0-10.0 for 51, 53, and 60; 48 samples in duplicate from pH 2.0-10.0 for 76 and 77). Absorbance values were recorded on a Cary Model 100 spectrometer and plotted using GraphPad Prism software. The points were fitted to a sigmoidal dose response curve with a variable slope to determine the Hill coefficient (ηH).
Data set [2] is described as follows: General UV-vis and fluorescence spectroscopy. The data set is classed as physicochemical. As to conditions: fluorescein derivatives; 0.1 N NaOH. How it is done:
Spectroscopy was performed using 1^−cm path length, 3.5^−mL quartz cuvettes or 1^−cm path length, 1.4^−mL semi-micro quartz cuvettes from Starna Cells. All measurements were taken at ambient temperature (22±2° C.). Absorption spectra were recorded on a Cary Model 100 spectrometer (Agilent), and fluorescence spectra were recorded on a Cary Eclipse fluorometer (Varian). The spectra, maximum absorption wavelength (labs), extinction coefficient at λabs (8), and maximum emission wavelength (em) were measured in 10 mM HEPES, pH 7.3 buffer (rhodamines and Malachite Green derivative 49) or 0.1 M NaOH (fluoresceins); the reported values for e are averages (n=3). Normalized spectra are shown for clarity.

A short description of data set [3]: Quantum yield determination. Format: physicochemical. The settings on record: fluorescein derivatives; 0.1 N NaOH. How it is done: All reported absolute fluorescence quantum yield values (Φf) were measured using a Quantaurus-QY spectrometer (model C11374, Hamamatsu). This instrument uses an integrating sphere to determine photons absorbed and emitted by a sample. Measurements were carried out using dilute samples (A<0.1), and self-absorption corrections were performed using the instrument software.^81

For data set [4] the following is noted: rhodamine derivatives; 10 mM HEPES, pH 7.3; data from the inventors' published work; cited from earlier work.
The conditions of data set [5]: rhodamine derivatives; 1:1 dioxane:H2O; data from the inventors' published work; cited from earlier work.
The conditions of data set [6]: rhodamine derivatives; 10 mM HEPES, pH 7.3; data from the inventors' published work; cited from earlier work. The source holds these as a separate data set.
Data set [7] concerns JM8·N4 mouse embryonic stem cells stably expressing histone H2B-HaloTag® fusion proteins. Description: Single-particle tracking (SPT) experiments. The data set is classed as cell-based. The settings on record: 100 Hz imaging. The protocol:
SPT experiments were carried out as previously described.^84 JM8·N4 mouse embryonic stem cells (ESCs) stably expressing histone H2B-HaloTag® fusion proteins were generated by co-expressing the PiggyBac EF1a-H2B-HaloTag®-IRES-Neo vector with the super piggyBac transposase as described previously,85 followed by G418 selection (500 μg/mL) for 2 weeks and verified by FACS sorting/confocal imaging staining with JF549-HaloTag® ligand (84HTL; 100 nM, 30 min). Cells were seeded on 25 mm #1.5 coverglass pre-cleaned with KOH and ethanol and coated with iMatrix-511 (TaKaRa #T304) or rhLaminin-521 (Gibco™ #A^29248) according to the manufacturers' instruction. All live-cell imaging experiments were conducted using an ESC imaging medium composed of FluoroBrite DMEM (ThermoFisher) plus 15% v/v ESC-qualified FBS, 1× GlutaMax, 1×NEAA, 0.1 mM 2^−mercaptoethanol, and LIF. For comparison of 59HTL and 89HTL (FIG. 13E, 13F) the histone H2B-HaloTag® ESCs were stained with 5 nM 59HTL for 1 h or 0.1 nM 89HTL for 15 min at 37° C. with 5% (v/v) CO2 to achieve sparse labeling with approximately equal localizations per region of interest (ROI), and then washed with dye-free media 3× for 30 min each wash For comparison of 40HTL, 44HTL, 1HTL, or 89HTL (FIG. 12A-12G) the histone H2B-HaloTag® ESCs were stained with 1 nM of HaloTag® ligands for 15 min at 37° C. with 5% (v/v) CO2 to achieve sparse labeling, and then washed with dye-free media 3× for 30 min each wash.
To quantify the brightness and photostability of the HaloTag® ligands, labeled cells were mounted onto a high speed motorized Nikon Eclipse Ti-E inverted microscope equipped with the following: 100× Apo TIRF 1.49 NA objective with a correction collar; four excitation laser lines (405/488/561/642 nm) and matching TIRF quad cube (405/488/561/640 nm reflection bands); automatic TIRF illuminator with motorized X axis and manual Y axis for beam positioning and focus: perfect focus 3 system; Triple DU-897 iXon Ultra EMCCD cameras on a Cairn Tri-cam emission splitter with filters 525/50 (GFP) 600/50 (RFP) and 705/72 (Cy5); humidified incubation chamber maintained at 37° C. with 5% v/v CO2 (Tokai Hit). SPT was performed at 100 Hz for the comparison of 59HTL and 89HTL (FIG. 13E, 13F) and 50 Hz for the comparison of 40HTL, 44HTL, 1HTL, or 89HTL (FIG. 12A-12G); the imaging session was performed for ˜5000 frames using 100% of maximal excitation power (˜120 mW at the fiber end before the TIRF unit). […] For the comparison of HaloTag® ligands 59HTL and 89HTL (FIG. 13E, 13F) and the comparison of compounds 40HTL, 44HTL, 1HTL, and […] (FIG. 12A-12G), the fluorophores were excited with a 647 nm laser. To minimize drift during imaging, the incubation chamber was fully thermally equilibrated, and all imaging was conducted in an isolated ultra-clean room with minimal mechanical vibrations. The microscope, laser lines, and camera integration were controlled using the Nikon NIS-Elements software. Cells with obvious movement during acquisition were removed from further analysis. SMT analysis was based on multiple target tracing 86 (MTT) with tracking parameters similar to previous work.^84 For SPT brightness (photon counts/molecule/s), intensity values from sparsely-labeled molecules were analyzed. For the comparison of HaloTag® ligands 59HTL and 89HTL (FIG. 13E, 13F): n=147,298 single-molecule events using 59HTL; n=100,392 single-molecule events using 89HTL. […]

Read-outs that look alike come from different tables or passages of the source.

Chain of JM8·N4 mouse embryonic stem cells stably expressing histone H2B-HaloTag® fusion proteins (P0A3G2 with tags, fused parts or gaps with the stated changes limits assumed): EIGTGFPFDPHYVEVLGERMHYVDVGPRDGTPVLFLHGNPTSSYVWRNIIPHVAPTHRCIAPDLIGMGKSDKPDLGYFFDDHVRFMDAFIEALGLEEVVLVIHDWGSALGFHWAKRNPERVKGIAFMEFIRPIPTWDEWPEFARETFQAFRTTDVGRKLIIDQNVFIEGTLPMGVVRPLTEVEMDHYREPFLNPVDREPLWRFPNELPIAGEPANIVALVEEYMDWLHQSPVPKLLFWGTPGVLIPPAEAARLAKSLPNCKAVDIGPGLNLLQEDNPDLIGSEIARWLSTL

Broadly, the pKa is the pH at which an ionisable group is half protonated. A higher pKa goes with a group that holds its proton tightly. In data set [1], `CC1(C)C2=CC(=O)C=CC2=C(c2c(F)c(F)c(F)c(F)c2C(=O)O)c2ccc(O)cc21` [compound 51, 4,5,6,7^−Tetrafluoro-carbofluorescein] yielded a ηH of 1.02 and a pKa of 6.86. Also, in data set [2], the ε is 96,700 M^−1cm^−1, the λabs is on record as 564 nm and the λem is given as 585 nm. In data set [3], this compound displayed a Φf of 0.54.

For `CC1(C)C2=CC(=O)C(F)=CC2=C(c2c(F)c(F)c(F)c(F)c2C(=O)O)c2cc(F)c(O)cc21` [compound 53, 2′,4,5,6,7,7′-Hexafluorocarbofluorescein], in data set [1], the ηH is listed as 1.00 and the pKa turned out to be 5.47. Moreover, in data set [2], the ε is given as 91,100 M^−1cm^−1, the λabs is reported as 576 nm and the λem came to 599 nm. The same compound displayed a Φf in data set [3] of 0.29.

With `C[Si]1(C)C2=CC(=O)C=CC2=C(c2c(F)c(F)c(F)c(F)c2C(=O)O)c2ccc(O)cc21` [compound 55, 4,5,6,7^−Tetrafluoro-Si-fluorescein], in data set [1], the ηH was determined as 1.23 and the pKa was 7.08. In data set [2], the ε was 84,100 M^−1cm^−1, the λabs is on record as 598 nm and the λem turned out to be 614 nm. The same compound gave a Φf in data set [3] of 0.50.

In data set [1], `O=C1OC2(c3ccc(O)cc3Oc3cc(O)ccc32)c2c(F)c(F)c(F)c(F)c21` [compound 60, 4,5,6,7^−tetrafluorofluorescein, reference compound] displayed a ηH of 0.92. Moreover, in data set [2], the ε is 85,600 M^−1cm^−1, the λabs is recorded as 508 nm and the λem is 527 nm. Also, the Φf in data set [3] is 0.85.

Turning to `O=C1OC2(c3ccc(O)cc3Oc3cc(O)ccc32)c2ccccc21` [compound 73, reference compound], in data set [1], the ηH stood at 0.97. Also, in data set [2], the ε is on record as 90,000 M^−1cm^−1, the λabs was determined as 490 nm and the λem is on record as 514 nm. Also, the Φf in data set [3] was 0.92.

Consider `O=C1OC2(c3cc(F)c(O)cc3Oc3cc(O)c(F)cc32)c2ccccc21` [compound 76, reference compound], for which, in data set [1], the ηH is 0.98. Moreover, in data set [2], the ε was 82,400 M^−1cm^−1, the λabs was determined as 490 nm and the λem turned out to be 514 nm. In data set [3], this compound displayed a Φf of 0.97.

In turn, `O=C1OC2(c3cc(F)c(O)cc3Oc3cc(O)c(F)cc32)c2c(F)c(F)c(F)c(F)c21` [compound 77, reference compound] displayed a ηH in data set [1] of 1.00. In data set [2], the ε is 81,200 M^−1cm^−1, the λabs is on record as 508 nm and the λem worked out at 527 nm. The compound further returned a Φf in data set [3] of 0.18.

Take `N=c1ccc2c(-c3ccccc3C(=O)O)c3ccc(N)cc3oc-2c1` [compound 81]: in data set [4], the ε was 75,000 M^−1cm^−1, the λabs is on record as 487 nm and the λem is listed as 520 nm. Also, the KL-Z in data set [5] is recorded as 2.53. Besides, the Φf in data set [6] is 0.88.

For the compound `CC1(C)C2=CC(=N)C=CC2=C(c2ccccc2C(=O)O)c2ccc(N)cc21` [compound 82], in data set [4], the ε is given as 65,000 M^−1cm^−1, the λabs was 552 nm and the λem is 577 nm. Moreover, the KL-Z in data set [5] is 0.0127. The Φf in data set [6] is 0.64.

For `C[Si]1(C)C2=CC(=N)C=CC2=C(c2ccccc2C(=O)O)c2ccc(N)cc21` [compound 83], in data set [4], the ε was 2,200 M^−1cm^−1, the λabs is listed as 587 nm and the λem was 609 nm. Besides, the Φf in data set [6] is recorded as 0.53.

Turning to `CC1(C)c2cc(N3CCC3)ccc2C2(OC(=O)c3ccccc32)c2ccc(N3CCC3)cc21` [compound 86, JF608], in data set [4], the ε is on record as 99,000 M^−1cm^−1, the λabs is on record as 608 nm and the λem was 631 nm. In addition, the KL-Z in data set [5] is recorded as 0.0911. Further, the Φf in data set [6] is 0.67.

With `[2H]C1([2H])N(c2ccc3c(-c4ccccc4C(=O)[O-])c4ccc(=[N+]5C([2H])([2H])C([2H])([2H])C([2H])([2H])C5([2H])[2H])cc-4oc3c2)C([2H])([2H])C([2H])([2H])C1([2H])[2H]` [compound 87], in data set [4], the λabs is 554 nm and the λem was 576 nm. Moreover, the KL-Z in data set [5] is given as 4.96. For the same compound, the Φf in data set [6] was 0.80.

For the compound `[2H]C1([2H])N(c2ccc3c(c2)C(C)(C)C2=CC(=[N+]4C([2H])([2H])C([2H])([2H])C([2H])([2H])C4([2H])[2H])C=CC2=C3c2ccccc2C(=O)[O-])C([2H])([2H])C([2H])([2H])C1([2H])[2H]` [compound 88], in data set [4], the ε is recorded as 130,000 M^−1cm^−1, the λabs is 612 nm and the λem is 633 nm. Besides, the KL-Z in data set [5] was 0.880. For the same compound, in data set [6], the Φf is recorded as 0.70.

Consider `[2H]C1([2H])N(c2ccc3c(c2)[Si](C)(C)C2=CC(=[N+]4C([2H])([2H])C([2H])([2H])C([2H])([2H])C4([2H])[2H])C=CC2=C3c2ccccc2C(=O)[O-])C([2H])([2H])C([2H])([2H])C1([2H])[2H]` [compound 89, JFX650], for which, in data set [4], the ε is 17,600 M^−1cm^−1, the λabs is on record as 650 nm and the λem is on record as 667 nm. For the same compound, the Φf in data set [6] is 0.53.

Consider `CN(c1ccccc1)c1ccc2c(-c3ccccc3C(=O)[O-])c3ccc(=[N+](C)c4ccccc4)cc-3oc2c1` [compound 90], for which, in data set [4], the ε is on record as 16,000 M^−1cm^−1 and the λabs was 549 nm. The KL-Z in data set [5] is recorded as 0.296.

For JF669 [compound 2], in data set [4], the ε is on record as 112,000 M^−1cm^−1, the λabs is 669 nm and the λem is 662 nm. Besides, in data set [5], the KL-Z was 0.262. Also, the Φf in data set [6] was 0.37.

As for “JFX650-HaloTag® ligand [89HTL, reference compound]”, the “SPT localizations over time” value in data set [7] is “relatively rapid bleaching”.

Values taken from US20250115628A1, “FLUORINATED FLUOROPHORES” (HOWARD HUGHES MEDICAL INSTITUTE, priority 2023, published 2025).
